The text below walks through data of ChEMBL document CHEMBL1201862, “PubChem BioAssay data set” (2004).

The nature of experiment [1]: luciferase reporter signal reduction – luminescence, H4-C neuroglioblastoma cells, dose response (AID 2458).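 Also: H4 neuroglioblastoma cells stably carrying a luciferase reporter gene fusion.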 In kind it is functional, cell-based. In general terms: In a reporter assay the amount or activity of a reporter protein is the signal.
For experiment [2], the system named is BJ. The experiment can be described thus: BJ-TERT fibroblast viability loss – cell-based, RAS-independent, luminescence, dose response (AID 1933). In kind it is functional. Conditions: Homo sapiens.
The next experiment in a line: cells. In kind it is functional, cell-based.
Experiment [3] can be described thus: alpha-synuclein stem-loop luciferase translation blockers – H4 neuroglioma cells, luminescence, confirmation (AID 1988). In kind it is functional, cell-based.
Experiment [4] relates to BJ. The experiment can be described thus: cells. Conditions: Homo sapiens. In kind it is functional, cell-based.
The nature of experiment [5]: Luminescence-based dose response cell-based high throughput screening assay for cytotoxic compounds using the IEC-6 intestinal epithelial cell line. [Related pubchem assays: 1858 (Summary AID.), 1825 (Counterscreen.), 1907 (Confirmation screen.)]. In kind it is functional. On the technique in general: The purpose of a counterscreen is to sort out artefacts and off-target activity.

The test system of experiment [6] is BJ. Description: BJ-TERT-LT-ST fibroblast viability loss – cell-based, RAS-independent, luminescence, dose response (AID 1935).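 Also: BJ fibroblasts immortalized with TERT plus LT and ST oncogenes.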 To be noted: Homo sapiens. The class given is functional.
Experiment [7] can be described thus: DRD fibroblast viability loss – cell-based, non-viral oncogenic, luminescence, dose response (AID 1934). Conditions: Homo sapiens. In kind it is functional.
Experiment [8] in a line: alpha-synuclein stem-loop translation blockers – luminescence, H4 neuroglioblastoma cells, dose confirmation, confirmation (AID 2454).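 Also: H4 neuroglioblastoma cells carrying an alpha-synuclein 5'UTR luciferase reporter; potency for inhibition of the luciferase signal.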 In kind it is functional, cell-based.
The test system of experiment [9] is BJ. The experiment can be described thus: growth inhibition of engineered Ras-driven BJ cells – cell-based, alamar blue fluorescence, cherrypicked samples, dose response (AID 2631).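 Also: confirmatory dose-response assay in RAS-dependent BJ fibroblasts engineered with TERT, LT and ST, with cytotoxicity read by fluorescence.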 The class given is functional. Conditions: Homo sapiens.
The subject of another experiment is Vero. The experiment can be described thus: host cell viability loss, Vero E6 – synthesized analogs, cytotoxicity control for West Nile virus antiviral project, SAR follow-up (AID 2244). In kind it is functional. To be noted: Chlorocebus sabaeus.
Experiment [10] deals with Peroxisome proliferator-activated receptor gamma/Nuclear receptor coactivator 2 (Homo sapiens, UniProt P37231). The class given is functional.
Experiment [11] deals with Peroxisome proliferator-activated receptor gamma/Nuclear receptor coactivator 1 (Homo sapiens, UniProt P37231). In kind it is functional.
Experiment [12] addresses Peroxisome proliferator-activated receptor gamma/Nuclear receptor coactivator 3 (Homo sapiens, UniProt P37231). The class given is functional.
Experiment [13] deals with Luciferin 4-monooxygenase (Photinus pyralis, UniProt P08659). The experiment can be described thus: Counter Screen for Luciferase-based Assay Positives. [Related pubchem assays: 620, 618, 411 ].
For another experiment, the system named is HT-1080. The experiment can be described thus: HT1080 cell viability loss – fluorescence readout (AID 620). In kind it is functional, cell-based. To be noted: Homo sapiens.
For another experiment, the system named is HEK293. The experiment can be described thus: EBV LMP1 TES2 canonical NF-kB signalling blockers – cell-based, HEK293, luciferase, cherry-pick, dose response (AID 588343). In kind it is functional. Conditions: Homo sapiens.
Experiment [14] can be described thus: A549 cell cytotoxicity, dose response, cytotoxicity control, plate reader, cherry-pick, antagonist series (AID 743412). In kind it is functional, cell-based.
A short description of experiment [15]: toxicity toward HepG2 liver cells – cell-based, plate reader, cherry-pick, antagonist series, cytotoxicity control, dose response (AID 743416). The class given is functional.
Experiment [16] in a line: blockers of bursicon-stimulated LGR2 cAMP reporter – cell-based, HEK293, CRE-luciferase reporter, cherry pick, set 2, dose response (AID 743343).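 Also: transfected cells were stimulated with diluted bursicon conditioned medium after compound addition.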 The class given is functional.
A short description of experiment [17]: blockade of melanocortin 4 receptor signaling – cell-based, plate reader, cherry pick, counter-screen for LGR2 antagonist project, dose response (AID 743444).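 Also: transfected HEK 293 cells stimulated with alpha-MSH peptide; potency of inhibitors of the alpha-MSH evoked signal.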 In kind it is functional.
Experiment [18] is described as follows: viability loss in HEK293 cells – cell-based, plate reader, cherry-picked samples, cytotoxicity control, dose response (AID 743446). In kind it is functional.
The target in another experiment is Cytochrome P450 2C19 (Homo sapiens, UniProt P33261). Description: qHTS Assay for Inhibitors and Substrates of Cytochrome P450 2C19. [Related pubchem assays: 410 ]. In kind it is ADME. Conditions: read-out: Potency. For orientation: qHTS replaces the single test concentration by a dilution series.
In a further experiment the target is Cytochrome P450 2D6 (Homo sapiens, UniProt P10635). The experiment can be described thus: qHTS Assay for Inhibitors and Substrates of Cytochrome P450 2D6. [Related pubchem assays: 410 ]. The class given is ADME. Conditions: read-out: Potency.
Another experiment concerns the target Cytochrome P450 3A4 (Homo sapiens, UniProt P08684). To be noted: Potency.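 Also: confirmatory qHTS run detecting inhibitors and substrates of CYP3A4.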
In another experiment the target is Cytochrome P450 2C9 (Homo sapiens, UniProt P11712). To be noted: Potency.
Another experiment deals with T1, Leucine aminopeptidase (Plasmodium falciparum 3D7, UniProt Q8IL11).
T1 sequence (Q8IL11 whole entry): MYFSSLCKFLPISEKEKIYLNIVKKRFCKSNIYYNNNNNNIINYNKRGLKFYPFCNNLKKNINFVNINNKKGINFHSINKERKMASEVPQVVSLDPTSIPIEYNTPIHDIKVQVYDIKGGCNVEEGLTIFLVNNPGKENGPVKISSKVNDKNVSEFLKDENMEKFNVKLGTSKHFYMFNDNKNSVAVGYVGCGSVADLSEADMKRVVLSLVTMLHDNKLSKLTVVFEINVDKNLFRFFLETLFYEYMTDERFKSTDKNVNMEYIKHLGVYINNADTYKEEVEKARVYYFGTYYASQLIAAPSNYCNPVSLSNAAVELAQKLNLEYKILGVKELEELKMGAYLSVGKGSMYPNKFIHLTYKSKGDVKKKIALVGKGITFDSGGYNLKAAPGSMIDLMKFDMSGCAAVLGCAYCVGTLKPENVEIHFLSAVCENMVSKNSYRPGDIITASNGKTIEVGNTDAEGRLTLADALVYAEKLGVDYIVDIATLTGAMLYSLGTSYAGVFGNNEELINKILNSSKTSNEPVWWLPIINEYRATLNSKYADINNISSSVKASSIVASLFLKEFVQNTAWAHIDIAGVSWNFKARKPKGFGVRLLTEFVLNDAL
The experiment can be described thus: P. falciparum M17LAP inhibitors, primary screen, biochemical, fluorogenic H-Leu-NHMec substrate, 1536-well (AID 1619). In kind it is functional.

Experiment [19] is described as follows: luciferase reporter signal suppression in cells – H4 neuroglioma cells, luminescence, dose response (AID 1990). In kind it is functional, cell-based.
Experiment [20] can be described thus: Luminescence Cell-Based Dose Response HTS to Identify Inhibitors of 5'UTR Stem-Loop Driven Prion Protein mRNA Translation in H4 Neuroglioblastoma Cells. [Related pubchem assays: 1827 (Project Summary), 1813 (Primary HTS)]. The class given is functional.
Experiment [21] addresses T2, Heat shock factor protein 1 (Mus musculus, UniProt P38532).
T2 sequence (P38532 whole entry): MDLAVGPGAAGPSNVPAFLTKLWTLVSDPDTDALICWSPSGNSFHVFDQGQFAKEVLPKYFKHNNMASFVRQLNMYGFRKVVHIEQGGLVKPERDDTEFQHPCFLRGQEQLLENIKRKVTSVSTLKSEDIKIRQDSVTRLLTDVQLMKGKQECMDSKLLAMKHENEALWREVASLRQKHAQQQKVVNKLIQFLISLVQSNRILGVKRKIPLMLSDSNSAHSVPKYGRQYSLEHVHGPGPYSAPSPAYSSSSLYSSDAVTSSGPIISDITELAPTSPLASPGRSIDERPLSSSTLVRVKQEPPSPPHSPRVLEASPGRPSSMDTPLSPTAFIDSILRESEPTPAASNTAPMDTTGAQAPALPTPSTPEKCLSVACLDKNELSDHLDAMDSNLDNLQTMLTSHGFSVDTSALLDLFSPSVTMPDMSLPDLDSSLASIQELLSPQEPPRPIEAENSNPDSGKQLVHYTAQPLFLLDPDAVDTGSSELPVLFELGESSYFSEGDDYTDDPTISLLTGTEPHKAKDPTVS
Description: decrease of HSF1-responsive luciferase luminescence – cell-based, NIH3T3, dose retest, confirmation (AID 2382).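 Also: NIH3T3 fibroblasts with HSF1-driven luciferase reporter stressed by proteasome inhibitor MG132; luminescence from HSF1-driven luciferase expression after 8 hours of MG132 stress.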 The class given is functional.

Experiment [22] can be described thus: reduction of Shn3 3'UTR-driven luciferase in osteoblasts – cell-based, Clone20 osteoblasts, firefly luciferase, cherry-picked, dose response (AID 624132).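 Also: firefly luciferase luminescence from reporter carrying the Shn3 3'UTR in osteoblasts.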 In kind it is functional.
A short description of experiment [23]: loss of viability in HepG2 cells – cell-based, CellTiter-Glo, cherry-picked, cytotoxicity control for Shn3 inhibitor project, dose response (AID 624134). In kind it is functional.
Experiment [24] in a line: non-specific 3'UTR reporter inhibition in Clone20-Shn3RL – cell-based, Renilla luciferase, cherry-picked, counter-screen for Shn3 inhibitor project, dose response (AID 624133). In kind it is functional.
For experiment [25], the target named is T3, Alkaline phosphatase, tissue-nonspecific isozyme (Homo sapiens, UniProt P05186).
T3 sequence (P05186 whole entry): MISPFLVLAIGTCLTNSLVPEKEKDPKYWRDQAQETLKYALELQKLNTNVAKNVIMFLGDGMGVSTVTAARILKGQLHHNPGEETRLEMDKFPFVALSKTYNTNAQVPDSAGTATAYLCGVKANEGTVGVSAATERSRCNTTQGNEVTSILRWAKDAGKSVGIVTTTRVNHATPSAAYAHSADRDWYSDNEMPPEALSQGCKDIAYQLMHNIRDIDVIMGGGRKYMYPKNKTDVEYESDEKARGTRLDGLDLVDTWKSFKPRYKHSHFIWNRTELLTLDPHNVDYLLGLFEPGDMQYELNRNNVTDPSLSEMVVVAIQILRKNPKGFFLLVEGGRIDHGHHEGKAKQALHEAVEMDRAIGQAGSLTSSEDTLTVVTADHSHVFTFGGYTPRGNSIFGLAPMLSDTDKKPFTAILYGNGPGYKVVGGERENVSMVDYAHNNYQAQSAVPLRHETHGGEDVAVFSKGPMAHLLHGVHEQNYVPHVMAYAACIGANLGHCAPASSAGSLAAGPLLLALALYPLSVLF

Active and inactive are the calls of the source.

Cytochrome P450 2C9, sequence (P11712 whole entry): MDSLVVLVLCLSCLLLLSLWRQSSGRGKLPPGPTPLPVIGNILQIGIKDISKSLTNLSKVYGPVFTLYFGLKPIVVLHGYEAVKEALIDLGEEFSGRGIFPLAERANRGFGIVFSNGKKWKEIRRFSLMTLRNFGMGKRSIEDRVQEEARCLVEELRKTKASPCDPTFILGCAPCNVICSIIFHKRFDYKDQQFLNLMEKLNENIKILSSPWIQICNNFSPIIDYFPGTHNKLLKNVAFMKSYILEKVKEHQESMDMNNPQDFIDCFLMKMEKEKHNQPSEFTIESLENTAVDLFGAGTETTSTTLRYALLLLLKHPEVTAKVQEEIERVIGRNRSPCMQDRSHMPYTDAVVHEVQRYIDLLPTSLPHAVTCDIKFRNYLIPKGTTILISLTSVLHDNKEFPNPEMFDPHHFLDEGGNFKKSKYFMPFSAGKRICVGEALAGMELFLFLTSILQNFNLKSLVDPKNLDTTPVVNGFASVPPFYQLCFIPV
Peroxisome proliferator-activated receptor gamma/Nuclear receptor coactivator 2, sequence (P37231 whole entry): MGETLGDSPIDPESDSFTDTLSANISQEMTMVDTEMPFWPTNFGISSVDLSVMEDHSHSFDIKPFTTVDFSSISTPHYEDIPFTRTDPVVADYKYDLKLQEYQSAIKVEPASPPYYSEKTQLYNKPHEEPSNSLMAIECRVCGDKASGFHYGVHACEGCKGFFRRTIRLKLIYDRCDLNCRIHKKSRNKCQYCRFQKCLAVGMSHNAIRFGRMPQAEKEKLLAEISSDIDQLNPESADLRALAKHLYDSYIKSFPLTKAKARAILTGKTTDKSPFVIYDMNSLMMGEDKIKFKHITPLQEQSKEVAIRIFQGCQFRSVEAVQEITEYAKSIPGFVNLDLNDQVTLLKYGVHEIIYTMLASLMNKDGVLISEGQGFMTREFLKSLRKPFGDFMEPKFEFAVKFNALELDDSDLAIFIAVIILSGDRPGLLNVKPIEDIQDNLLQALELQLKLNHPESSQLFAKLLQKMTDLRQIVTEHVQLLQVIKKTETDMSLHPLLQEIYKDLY
Peroxisome proliferator-activated receptor gamma/Nuclear receptor coactivator 2, sequence (Q15596 whole entry, further chain): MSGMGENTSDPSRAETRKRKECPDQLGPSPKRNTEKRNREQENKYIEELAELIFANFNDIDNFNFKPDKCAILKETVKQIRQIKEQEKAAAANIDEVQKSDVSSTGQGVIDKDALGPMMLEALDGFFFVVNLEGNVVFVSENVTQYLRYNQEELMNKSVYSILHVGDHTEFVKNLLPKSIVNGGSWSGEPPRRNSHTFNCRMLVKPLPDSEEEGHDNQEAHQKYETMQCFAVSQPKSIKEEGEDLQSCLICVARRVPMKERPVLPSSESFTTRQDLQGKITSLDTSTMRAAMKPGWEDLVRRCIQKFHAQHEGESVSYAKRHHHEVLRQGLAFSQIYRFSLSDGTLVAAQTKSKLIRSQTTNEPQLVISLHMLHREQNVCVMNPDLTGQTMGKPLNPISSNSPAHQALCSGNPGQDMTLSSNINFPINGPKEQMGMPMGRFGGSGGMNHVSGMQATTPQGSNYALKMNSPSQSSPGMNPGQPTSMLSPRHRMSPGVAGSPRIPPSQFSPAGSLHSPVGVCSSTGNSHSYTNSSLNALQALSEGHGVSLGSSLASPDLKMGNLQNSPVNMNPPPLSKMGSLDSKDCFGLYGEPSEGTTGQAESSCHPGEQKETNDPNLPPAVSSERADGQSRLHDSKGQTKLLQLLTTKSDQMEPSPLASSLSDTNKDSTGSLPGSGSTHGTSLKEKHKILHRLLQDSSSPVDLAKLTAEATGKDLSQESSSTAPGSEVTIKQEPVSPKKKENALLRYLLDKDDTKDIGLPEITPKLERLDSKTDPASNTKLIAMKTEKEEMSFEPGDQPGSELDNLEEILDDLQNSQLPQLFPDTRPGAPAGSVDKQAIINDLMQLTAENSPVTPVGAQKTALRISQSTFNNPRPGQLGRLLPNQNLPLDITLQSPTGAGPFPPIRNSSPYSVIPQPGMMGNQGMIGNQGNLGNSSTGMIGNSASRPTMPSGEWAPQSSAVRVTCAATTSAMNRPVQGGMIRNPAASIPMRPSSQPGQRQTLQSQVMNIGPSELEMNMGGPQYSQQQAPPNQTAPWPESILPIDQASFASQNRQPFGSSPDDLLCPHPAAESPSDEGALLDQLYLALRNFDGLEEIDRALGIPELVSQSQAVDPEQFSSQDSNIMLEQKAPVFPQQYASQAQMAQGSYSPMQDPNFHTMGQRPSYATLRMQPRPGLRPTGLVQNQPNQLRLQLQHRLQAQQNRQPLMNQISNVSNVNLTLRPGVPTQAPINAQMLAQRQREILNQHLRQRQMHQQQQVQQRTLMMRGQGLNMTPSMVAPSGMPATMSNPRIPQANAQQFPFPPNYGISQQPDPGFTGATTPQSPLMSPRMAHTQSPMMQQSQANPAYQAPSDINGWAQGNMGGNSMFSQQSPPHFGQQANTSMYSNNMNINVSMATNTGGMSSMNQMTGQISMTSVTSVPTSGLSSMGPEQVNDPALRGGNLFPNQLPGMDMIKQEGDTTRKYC
Peroxisome proliferator-activated receptor gamma/Nuclear receptor coactivator 1, sequence (P37231 whole entry): as the sequence (P37231 whole entry) above
Peroxisome proliferator-activated receptor gamma/Nuclear receptor coactivator 1, sequence (Q15788 whole entry, further chain): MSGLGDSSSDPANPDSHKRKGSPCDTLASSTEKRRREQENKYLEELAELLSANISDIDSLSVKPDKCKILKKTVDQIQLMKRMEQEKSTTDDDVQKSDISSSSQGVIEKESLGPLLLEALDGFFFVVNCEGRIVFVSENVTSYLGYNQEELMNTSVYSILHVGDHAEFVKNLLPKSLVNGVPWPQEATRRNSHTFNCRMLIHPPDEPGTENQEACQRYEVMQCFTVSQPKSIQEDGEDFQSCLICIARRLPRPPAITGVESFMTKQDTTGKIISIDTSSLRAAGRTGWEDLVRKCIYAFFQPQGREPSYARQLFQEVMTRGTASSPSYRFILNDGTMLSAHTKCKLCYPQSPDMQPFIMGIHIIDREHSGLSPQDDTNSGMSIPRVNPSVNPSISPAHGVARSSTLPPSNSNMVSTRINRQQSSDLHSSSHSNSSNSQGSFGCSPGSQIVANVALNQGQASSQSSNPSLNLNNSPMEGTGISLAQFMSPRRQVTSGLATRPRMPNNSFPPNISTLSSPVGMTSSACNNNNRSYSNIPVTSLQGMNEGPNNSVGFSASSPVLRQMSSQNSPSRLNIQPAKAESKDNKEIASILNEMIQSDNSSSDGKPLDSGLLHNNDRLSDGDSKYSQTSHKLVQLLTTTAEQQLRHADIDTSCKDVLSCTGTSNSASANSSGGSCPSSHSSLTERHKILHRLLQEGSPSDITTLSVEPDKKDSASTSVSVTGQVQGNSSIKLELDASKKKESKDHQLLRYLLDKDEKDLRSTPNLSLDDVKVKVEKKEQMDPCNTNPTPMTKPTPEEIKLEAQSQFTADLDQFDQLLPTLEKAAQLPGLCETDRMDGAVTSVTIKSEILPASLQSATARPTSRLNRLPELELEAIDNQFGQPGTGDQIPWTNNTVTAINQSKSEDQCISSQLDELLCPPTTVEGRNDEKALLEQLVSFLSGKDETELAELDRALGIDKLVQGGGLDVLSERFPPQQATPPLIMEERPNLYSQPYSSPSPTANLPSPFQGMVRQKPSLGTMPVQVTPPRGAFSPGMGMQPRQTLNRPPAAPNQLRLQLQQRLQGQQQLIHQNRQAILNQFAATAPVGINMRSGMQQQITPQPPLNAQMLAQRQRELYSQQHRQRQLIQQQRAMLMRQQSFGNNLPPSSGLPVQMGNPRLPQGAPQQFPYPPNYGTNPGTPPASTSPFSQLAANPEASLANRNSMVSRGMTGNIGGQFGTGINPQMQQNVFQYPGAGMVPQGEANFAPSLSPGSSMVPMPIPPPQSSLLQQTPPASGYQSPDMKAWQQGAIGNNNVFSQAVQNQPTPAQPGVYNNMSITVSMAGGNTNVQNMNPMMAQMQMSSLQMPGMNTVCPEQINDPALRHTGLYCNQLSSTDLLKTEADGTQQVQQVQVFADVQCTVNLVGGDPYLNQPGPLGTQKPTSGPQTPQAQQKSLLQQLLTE
Cytochrome P450 3A4, sequence (P08684 whole entry): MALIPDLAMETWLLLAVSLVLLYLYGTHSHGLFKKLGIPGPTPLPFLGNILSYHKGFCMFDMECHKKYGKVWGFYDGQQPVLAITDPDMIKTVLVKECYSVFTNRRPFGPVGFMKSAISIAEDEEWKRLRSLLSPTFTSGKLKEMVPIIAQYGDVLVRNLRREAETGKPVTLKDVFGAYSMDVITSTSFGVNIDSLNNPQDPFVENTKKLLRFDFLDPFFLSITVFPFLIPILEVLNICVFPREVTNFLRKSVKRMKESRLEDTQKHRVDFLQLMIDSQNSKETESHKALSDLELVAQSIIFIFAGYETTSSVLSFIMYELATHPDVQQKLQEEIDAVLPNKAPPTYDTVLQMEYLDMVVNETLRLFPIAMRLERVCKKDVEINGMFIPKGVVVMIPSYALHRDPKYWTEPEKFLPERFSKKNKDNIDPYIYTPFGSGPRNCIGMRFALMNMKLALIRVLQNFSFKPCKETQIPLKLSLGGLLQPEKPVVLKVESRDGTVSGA

With `Cc1cccc2cc(C#N)c(SCC(=O)N3CC(=O)Nc4ccccc43)nc12`, the EC50 (commonly the concentration that produces a half-maximal response) in experiment [1] was 1.59 µM (active); with BJ [2] it was 0.583 µM (inconclusive); in “cells” it was 2.36 µM (active); in experiment [3], < 0.1 µM (active); in the experiment on BJ [4], 18 µM (active); in the experiment with BJ [6] it was 0.46 µM (active). The EC50 in experiment [7] is 0.804 µM (active); in [8], 1.42 µM (active); in the experiment with BJ [9], < 0.104 µM (active). In addition, in experiment [5], the concentration for half-maximal inhibition (IC50) (in general, the concentration that inhibits the measured activity by half) is 0.58 µM (active).

With `O=C(Nc1nc(-c2ccc(Cl)cc2)cs1)c1ccccc1Cl`, the half-maximal cytotoxic concentration (CC50) (commonly the concentration at which the toxic effect on the cells reaches its halfway point) with Vero is > 40 µM (active).

As for `CC1=NN(C(=O)Cn2ccc([N+](=O)[O-])n2)C(O)(C(F)(F)F)C1` (stereo not drawn), the concentration giving a half-maximal response (EC50) in experiment [10], in experiment [11] and in experiment [12] was > 79.4 µM (not active) in each case.

In the case of `O=C(Nc1ccc(CN2CCOCC2)cc1)c1cc2ccccn2n1`, the EC50 is 71.5 µM (active) in [13] and > 50 µM (not active) in the experiment with HT-1080. The AC50 is 3.01 µM (active) in the experiment with HEK293; > 52 µM (inactive) in experiment [14]; > 52 µM (inactive) in experiment [15]; 2.6 µM (active) in experiment [16]; 5.82 µM (active) in experiment [17]; 36 µM (active) in [18].

Turning to `COC(=O)NC(/C(C(=O)OC)=C(\C)NCc1ccccc1)c1ccccc1` (stereo not drawn), the AC50 on Cytochrome P450 2C19 was 0.0079 µM (inconclusive); at Cytochrome P450 2D6, 3.98 µM (inconclusive); on Cytochrome P450 3A4, 3.98 µM (inconclusive); on Cytochrome P450 2C9 it was 3.16 µM (inconclusive).

As to `CCOC(=O)c1cnc2c(C)c(Cl)ccc2c1N1CCOCC1`, the EC50 in [10], in experiment [11] and in experiment [12] was > 79.4 µM (not active) in each case.

For `COC(=O)C(/C=C/C(C)Cc1cc(Br)cc(OCc2ccccc2)c1OC)OCc1ccccc1` (stereo not drawn), the AC50 at Cytochrome P450 3A4 and at Cytochrome P450 2C9 was 3.16 µM (inconclusive) each time.

Consider `c1ccc(-c2cnc(-c3ccccc3)nc2)cc1`, for which the EC50 is 14.3 µM (active) in experiment [13] and > 50 µM (not active) in the experiment on HT-1080.

In the case of `CCOc1ccc(OCc2cccc(C(=O)O)c2)cc1`, the IC50 on Leucine aminopeptidase was 24.8 µM (active). Further, the EC50 in [19] is < 0.1 µM (active); in experiment [1], 0.072 µM (active); in “cells”, 0.101 µM (active); in experiment [20], < 0.1 µM (active); in experiment [21] it was < 0.16 µM (active); in experiment [3], < 0.1 µM (active). The EC50 in experiment [8] was 0.038 µM (active); with BJ [9], > 133 µM (inactive). Moreover, the AC50 in experiment [22] is 0.649 µM (active); in experiment [23], 16.9 µM (active); in [24], 21.4 µM (active); in experiment [14], 21.7 µM (active); in experiment [15] it was 31 µM (active); in [16], 0.118 µM (active). The figures for the AC50 in experiment [17] and in experiment [18] were 0.137 µM (active) and 18.9 µM (active), respectively.

On to `COc1cccc2sc(Nc3nc4ccc(NC(C)=O)cc4s3)nc12`, for which the EC50 in experiment [19] was > 120 µM (not active); in the experiment with BJ [2], 67.8 µM (active); in [20], 12.6 µM (active); in experiment [3], 10.7 µM (active); in experiment [25], > 100 µM (not active); in the experiment with BJ [4] it was 28.2 µM (active). The results for the EC50 (with BJ [6]; in [7]) were > 150 µM (not active) and 30 µM (active), respectively.
